Measured values taken from ChEMBL document CHEMBL3751718, “Synthesis and biological evaluation of lipid-like 5-(2-hydroxyethyl)-4-methyl-1,3-thiazole derivatives as potential anticancer and antimicrobial agents” (Medchemcomm, 2015).
≈ marks a conversion by molar mass, not a printed value. Calls of active or inactive are those of the source. The rule behind the calls is not given here.

Legend:
[1] = test system: Bacillus cereus; experiment: Antibacterial activity against Bacillus cereus MSCL 330 at 5 mg/ml after 24 hrs by agar dish diffusion method; type: functional; settings: for zone of inhibition at 5000 µg/mL: MSCL 330, 24 h, read-out: DIZ
[2] = test system: Escherichia coli; experiment: Antibacterial activity against Escherichia coli MSCL 332 at 10 mg/ml after 24 hrs by agar dish diffusion method; type: functional
[3] = test system: Proteus mirabilis; experiment: Antibacterial activity against Proteus mirabilis MSCL 590 at 10 mg/ml after 24 hrs by agar dish diffusion method; type: functional
[4] = test system: Bacillus cereus; experiment: Antibacterial activity against Bacillus cereus MSCL 330 at 10 mg/ml after 24 hrs by agar dish diffusion method; type: functional; settings: for zone of inhibition at 10000 µg/mL: MSCL 330, 24 h, read-out: DIZ
[5] = test system: Staphylococcus aureus; experiment: Antibacterial activity against Staphylococcus aureus MSCL 334 at 10 mg/ml after 24 hrs by agar dish diffusion method; type: functional; settings: for zone of inhibition at 10000 µg/mL: MSCL 334, 24 h, read-out: DIZ
[6] = test system: Aspergillus niger; experiment: Antifungal activity against Aspergillus niger MSCL 324 at 5 mg/ml after 48 hrs by agar dish diffusion method; type: functional; settings: for zone of inhibition at 5000 µg/mL: MSCL 324, 48 h, read-out: DIZ
[7] = test system: MG-22A; experiment: Cytotoxicity against mouse MG-22A cells assessed as cell viability at 6.25 to 50 ug/ml after 72 hrs by MTT assay; type: functional; settings: for CC50: read-out: LC50 (the source's name)
[8] = test system: Candida albicans; experiment: Fungicidal activity against Candida albicans MSCL 378 incubated for 24 hrs followed by colony transfer to agar plates for 24 hrs by colony counting based assay; type: functional; settings: MSCL 378, 24 h, read-out: MFC99.9
[9] = Cytotoxicity against mouse NIH/3T3 cells assessed as cell viability at 6.25 to 50 ug/ml by neutral red-based assay; settings: nih3t3
[10] = test system: MG-22A; experiment: Induction of nitric oxide production in mouse MG-22A cells by Griess assay; type: functional; set-up: concentration or dose not given beside the values
[11] = test system: Candida albicans; experiment: Antifungal activity against Candida albicans MSCL 378 at 5 mg/ml after 48 hrs by agar dish diffusion method; type: functional; settings: for zone of inhibition at 5000 µg/mL: MSCL 378, 48 h, read-out: DIZ
[12] = test system: Candida albicans; experiment: Antifungal activity against Candida albicans MSCL 378 at 10 mg/ml after 48 hrs by agar dish diffusion method; type: functional; settings: for zone of inhibition at 10000 µg/mL: MSCL 378, 48 h, read-out: DIZ
[13] = test system: Candida albicans; experiment: Antifungal activity against Candida albicans MSCL 378 after 24 hrs by broth dilution method; type: functional; settings: MSCL 378, 24 h
[14] = test system: Pseudomonas aeruginosa; experiment: Antibacterial activity against Pseudomonas aeruginosa MSCL 331 at 5 mg/ml after 24 hrs by agar dish diffusion method; type: functional
[15] = test system: Escherichia coli; experiment: Antibacterial activity against Escherichia coli MSCL 332 at 5 mg/ml after 24 hrs by agar dish diffusion method; type: functional
[16] = test system: Proteus mirabilis; experiment: Antibacterial activity against Proteus mirabilis MSCL 590 at 5 mg/ml after 24 hrs by agar dish diffusion method; type: functional
[17] = (§1) Cytotoxicity against human HT1080 cells assessed as cell viability at 6.25 to 50 ug/ml after 72 hrs by MTT assay; type: functional; settings: HT-1080, 72 h, read-out: LC50 (the source's name)
[18] = test system: Pseudomonas aeruginosa; experiment: Antibacterial activity against Pseudomonas aeruginosa MSCL 331 at 10 mg/ml after 24 hrs by agar dish diffusion method; type: functional
[19] = test system: Aspergillus niger; experiment: Fungicidal activity against Aspergillus niger MSCL 324 incubated for 24 hrs followed by colony transfer to agar plates for 24 hrs by colony counting based assay; type: functional; settings: MSCL 324, 24 h, read-out: MFC99.9
[20] = test system: MG-22A; experiment: Cytotoxicity against mouse MG-22A cells assessed as cell viability at 6.25 to 50 ug/ml by crystal violet-based assay; type: functional; settings: for CC50: read-out: LC50 (the source's name)
[21] = (§2) Cytotoxicity against human HT1080 cells assessed as cell viability at 6.25 to 50 ug/ml by crystal violet-based assay; type: functional; settings: HT-1080, read-out: LC50 (the source's name)
[22] = test system: HT-1080; experiment: Induction of nitric oxide production in human HT1080 cells by Griess assay; type: functional; set-up: concentration or dose not given beside the values
[23] = test system: Aspergillus niger; experiment: Antifungal activity against Aspergillus niger MSCL 324 at 10 mg/ml after 48 hrs by agar dish diffusion method; type: functional; settings: for zone of inhibition at 10000 µg/mL: MSCL 324, 48 h, read-out: DIZ
[24] = test system: Staphylococcus aureus; experiment: Antibacterial activity against Staphylococcus aureus MSCL 334 at 5 mg/ml after 24 hrs by agar dish diffusion method; type: functional; settings: for zone of inhibition at 5000 µg/mL: MSCL 334, 24 h, read-out: DIZ
[25] = test system: Aspergillus niger; experiment: Antifungal activity against Aspergillus niger MSCL 324 after 24 hrs by broth dilution method; type: functional; settings: MSCL 324, 24 h
[26] = test system: HT-1080; experiment: as §1; type: functional
[27] = test system: HT-1080; experiment: as §2; type: functional
[28] = test system: Staphylococcus aureus; experiment: Antibacterial activity against Staphylococcus aureus MSCL 334 after 24 hrs by broth dilution method; type: functional; settings: MSCL 334, 24 h
[29] = test system: Bacillus cereus; experiment: Bactericidal activity against Bacillus cereus MSCL 330 incubated for 24 hrs followed by colony transfer to agar plates for 24 hrs by colony counting based assay; type: functional; settings: MSCL 330, 24 h, read-out: MBC99.9
[30] = test system: Staphylococcus aureus; experiment: Bactericidal activity against Staphylococcus aureus MSCL 334 incubated for 24 hrs followed by colony transfer to agar plates for 24 hrs by colony counting based assay; type: functional; settings: MSCL 334, 24 h, read-out: MBC99.9
[31] = test system: Bacillus cereus; experiment: Antibacterial activity against Bacillus cereus MSCL 330 after 24 hrs by broth dilution method; type: functional; settings: MSCL 330, 24 h
[32] = test system: Escherichia coli; experiment: Bactericidal activity against Escherichia coli MSCL 332 incubated for 24 hrs followed by colony transfer to agar plates for 24 hrs by colony counting based assay; type: functional; settings: MSCL 332, 24 h, read-out: MBC99.9
[33] = test system: Escherichia coli; experiment: Antibacterial activity against Escherichia coli MSCL 332 after 24 hrs by broth dilution method; type: functional; settings: MSCL 332, 24 h

CCCCCCCCCCCCCCCCCCOCCc1scnc1C
diameter of the inhibition zone (DIZ) [1]: inactive
diameter of the inhibition zone (DIZ) [2]: inactive
diameter of the inhibition zone (DIZ) [3]: inactive
diameter of the inhibition zone (DIZ) [4]: inactive
diameter of the inhibition zone (DIZ) [5]: inactive
diameter of the inhibition zone (DIZ) [6]: inactive
CC50 [7]: > 100 µg/mL
MFC [8]: > 256 µg/mL
LC50 [9]: 528 µg/mL
Activity [10]: 5%
zone of inhibition at 5000 µg/mL [11]: 10 mm
zone of inhibition at 10000 µg/mL [12]: 14 mm
MIC [13]: > 256 µg/mL
diameter of the inhibition zone (DIZ) [14]: inactive
diameter of the inhibition zone (DIZ) [15]: inactive
diameter of the inhibition zone (DIZ) [16]: inactive
CC50 [17]: > 100 µg/mL
diameter of the inhibition zone (DIZ) [18]: inactive
MFC [19]: > 256 µg/mL
CC50 [20]: > 100 µg/mL
CC50 [21]: > 100 µg/mL
Activity [22]: 4%
zone of inhibition at 10000 µg/mL [23]: 11 mm
diameter of the inhibition zone (DIZ) [24]: inactive
MIC [25]: > 256 µg/mL

Cc1ncsc1CCO
LC50 [7]: inactive
Activity [10]: 4%
LC50 [26]: inactive
LC50 [20]: inactive
LC50 [27]: inactive
Activity [22]: 4%

CCCCCCCOCCc1scnc1C
MIC [28]: 16 µg/mL (≈ 66.3 µM)
zone of inhibition at 5000 µg/mL [1]: 12 mm
MBC [29]: > 256 µg/mL
diameter of the inhibition zone (DIZ) [2]: inactive
diameter of the inhibition zone (DIZ) [3]: inactive
zone of inhibition at 10000 µg/mL [4]: 12 mm
zone of inhibition at 10000 µg/mL [5]: 15 mm
MBC [30]: 64 µg/mL (≈ 265 µM)
zone of inhibition at 5000 µg/mL [6]: 15 mm
CC50 [7]: 49.7 µM
MFC [8]: 128 µg/mL (≈ 530 µM)
LC50 [9]: 224 µM
Activity [10]: 200%
zone of inhibition at 5000 µg/mL [11]: 13 mm
zone of inhibition at 10000 µg/mL [12]: 13 mm
MIC [13]: 64 µg/mL (≈ 265 µM)
diameter of the inhibition zone (DIZ) [14]: inactive
diameter of the inhibition zone (DIZ) [15]: inactive
diameter of the inhibition zone (DIZ) [16]: inactive
CC50 [17]: 70.5 µM
MIC [31]: 64 µg/mL (≈ 265 µM)
diameter of the inhibition zone (DIZ) [18]: inactive
MFC [19]: 256 µg/mL (≈ 1060 µM)
CC50 [20]: 37.3 µM
CC50 [21]: 62.2 µM
Activity [22]: 200%
zone of inhibition at 10000 µg/mL [23]: 15 mm
zone of inhibition at 5000 µg/mL [24]: 11 mm
MIC [25]: 16 µg/mL (≈ 66.3 µM)

CCCCCCCCCCOCCc1sc[n+](C)c1C.[I-]
MBC [32]: 32 µg/mL
MIC [28]: 2 µg/mL
zone of inhibition at 5000 µg/mL [1]: 29 mm
MBC [29]: 64 µg/mL
zone of inhibition at 10000 µg/mL ([2]; MSCL 332, 24 h, read-out: DIZ): 20 mm
zone of inhibition at 10000 µg/mL ([3]; MSCL 590, 24 h, read-out: DIZ): 20 mm
zone of inhibition at 10000 µg/mL [4]: 30 mm
zone of inhibition at 10000 µg/mL [5]: 25 mm
MBC [30]: 4 µg/mL
zone of inhibition at 5000 µg/mL [6]: 12 mm
CC50 [7]: 1.17 µM
MFC [8]: 32 µg/mL
LC50 [9]: 37.6 µM
Activity [10]: 150%
zone of inhibition at 5000 µg/mL [11]: 29 mm
MIC [33]: 32 µg/mL
zone of inhibition at 10000 µg/mL [12]: 33 mm
MIC [13]: 16 µg/mL
zone of inhibition at 5000 µg/mL ([14]; MSCL 331, 24 h, read-out: DIZ): 9 mm
zone of inhibition at 5000 µg/mL ([15]; MSCL 332, 24 h, read-out: DIZ): 15 mm
zone of inhibition at 5000 µg/mL ([16]; MSCL 590, 24 h, read-out: DIZ): 17 mm
CC50 [17]: 0.94 µM
MIC [31]: 32 µg/mL
zone of inhibition at 10000 µg/mL ([18]; MSCL 331, 24 h, read-out: DIZ): 15 mm
MFC [19]: 32 µg/mL
CC50 [20]: 0.23 µM
CC50 [21]: 0.47 µM
Activity [22]: 150%
zone of inhibition at 10000 µg/mL [23]: 15 mm
zone of inhibition at 5000 µg/mL [24]: 25 mm
MIC [25]: 16 µg/mL

GENTAMICIN
inhibition zone (IZ) [1]: 35 mm
inhibition zone (IZ) [2]: 30 mm
inhibition zone (IZ) [3]: 31 mm
inhibition zone (IZ) [4]: 36 mm
inhibition zone (IZ) [5]: 32 mm
diameter of the inhibition zone (DIZ) [6]: inactive
diameter of the inhibition zone (DIZ) [11]: inactive
diameter of the inhibition zone (DIZ) [12]: inactive
inhibition zone (IZ) [14]: 31 mm
inhibition zone (IZ) [15]: 27 mm
inhibition zone (IZ) [16]: 28 mm
inhibition zone (IZ) [18]: 32 mm
diameter of the inhibition zone (DIZ) [23]: inactive
inhibition zone (IZ) [24]: 30 mm
